# PubChem BioAssay AID2060492 (Molecular Pharmacology Branch, DTP, NCI, 2025)
# System: 695427-040-R-J1-PDC complex spheroids, viability percent T/C
# Assay: Anticancer human tumor 695427-040-R-J1-PDC patient-derived colon adenocarcinoma cell line growth inhibition [GQUAD]
# Conditions: for IC50: curve of first compound; for viability, T/C: stronger effect = lower value
# From the text: DNA G-quadruplex Stabilizer Agents in Combinations in Complex Spheroids
# A high-throughput screen of multi-cell type tumor spheroids was designed to identify active combinations of DNA G-quadruplex stabilizer agents and targeted small molecules. Complex spheroids include a stromal component modeled by human endothelial cells (HUVEC) and fibroblasts modeled by human mesenchymal stem cells (MSCs). The concentration ranges selected for each drug and investigational agent were based upon clinically achievable concentrations if the clinical Cmax of the agent was known.
# Compounds. The drugs and investigational agents: pidnarulex (CX-5461; NSC782164), APTO-253 (NSC789042), BRACO-19 (NSC847499), peposertib (NSC802822), ceralasertib (NSC780249), elimusertib (NSC800525), camonsertib (NSC841442), AZD-1390 (NSC803789), olaparib (NSC753686), talazoparib (NSC767125), ART-558 (NSC835418), sotorasib (NSC818433), MRTX-1133 (NSC836407), SN-38 (NSC673596), topotecan (NSC609699), etoposide (NSC141540), doxorubicin (NSC123127), gemcitabine (NSC613327), 5-fluorouracil (NSC19893), paclitaxel (NSC125973), vemurafenib (NSC761431), panobinostat (NSC761190), R-306465 (JNJ-16241199; NSC773264), adavosertib (NSC754352), TP-3654 (NSC805149), carboplatin (NSC241240), KSQ-4279 (NSC840948), and staurosporine (NSC755774) were obtained from the National Cancer Institute (NCI) Developmental Therapeutics Program Chemical Repository (34). The FDA-approved anticancer drug set is available from the NCI Developmental Therapeutics Program. […] The stock solutions were prepared in dimethyl sulfoxide (DMSO, Sigma-Aldrich, St. Louis, MO, cat. D2650) at 800-fold the tested concentration and stored at -70 degrees C prior to their use. All drugs and investigational agents were tested over a range starting from a high concentration at or near the clinical Cmax and decreasing in half-log increments. If the clinical Cmax for an agent had not been determined, the highest concentration tested was 10 microM.
# 2.3 Cell Culture. All cells were maintained in an incubator at 37 degrees C and 5% CO2 with 95% humidity. The PDC lines were cultured according to standard operating procedures established by the NCI PDMR. All PDCs were thawed and cultured in Matrigel-coated flasks prepared with a working solution of 1X Ham's F-12 nutrient mix, without supplementation (Invitrogen, cat. 11765054), 100 U/mL penicillin-streptomycin (Invitrogen, cat. 15140122), and 2.5% Matrigel (Corning Inc., cat. 354248) for the first three passages. The 857933-349-R-J2-PDC line was cultured in 6C/Colon 1B media, which includes advanced DMEM/F-12 (Thermo Fisher Scientific, cat. 12634028), 10 mM HEPES (Thermo Fisher Scientific, cat. 15630080), 1X GlutaMAX supplement (Thermo Fisher Scientific, cat. 35050061), 0.1 mg/mL primocin (InvivoGen, cat. ant-pm-2), 10% defined fetal bovine serum, heat inactivated (HyClone Laboratories Inc., cat. SH30070.03HI), 50% L-WRN conditioned media (ATCC, cat. CRL-3276), 1.25 mM N-Acetyl-L-cysteine (Sigma-Aldrich, cat. A9165), 10 mM nicotinamide (Sigma-Aldrich, cat. N0636), 1X B-27 supplement (Thermo Fisher Scientific, cat. 17504044), 1X N-2 supplement (Thermo Fisher Scientific, cat. 17502048), 10 microM Y-27632 dihydrochloride (Tocris Bioscience, cat. 1254), and 50 ng/mL human EGF recombinant protein (Thermo Fisher Scientific, cat. PHG0311). The 485176-168-R4-J1-PDC line was cultured in Panc media, which includes all 6C/Colon 1B media components plus 100 ng/mL human FGF-10 (Thermo Fisher Scientific, cat. 100-26), 500 nM SB-431542 (Selleckchem, cat. S1067), and gastrin (Tocris, cat. 3006).
# […]
# [1] = second compound 0.0316 µM, first compound 0.0316 µM
# [2] = second compound 0.0316 µM, first compound 0.1 µM
# [3] = second compound 0.0316 µM, first compound 0.316 µM
# [4] = second compound 0.0316 µM, first compound 1 µM
# [5] = second compound 0.0316 µM, first compound 3.16 µM
# [6] = second compound 0.0316 µM, first compound 10 µM
# [7] = second compound 0.1 µM, first compound 0.0316 µM
# [8] = second compound 0.1 µM, first compound 0.1 µM
# [9] = second compound 0.1 µM, first compound 0.316 µM
# [10] = second compound 0.1 µM, first compound 1 µM
# [11] = second compound 0.1 µM, first compound 3.16 µM
# [12] = second compound 0.1 µM, first compound 10 µM
# [13] = second compound 0.316 µM, first compound 0.0316 µM
# [14] = second compound 0.316 µM, first compound 0.1 µM
# [15] = second compound 0.316 µM, first compound 0.316 µM
# [16] = second compound 0.316 µM, first compound 1 µM
# [17] = second compound 0.316 µM, first compound 3.16 µM
# [18] = second compound 0.316 µM, first compound 10 µM
# [19] = second compound 1 µM, first compound 0.0316 µM
# [20] = second compound 1 µM, first compound 0.1 µM
# [21] = second compound 1 µM, first compound 0.316 µM
# [22] = second compound 1 µM, first compound 1 µM
# [23] = second compound 1 µM, first compound 3.16 µM
# [24] = second compound 1 µM, first compound 10 µM
# [25] = second compound 3.16 µM, first compound 0.0316 µM
# [26] = second compound 3.16 µM, first compound 0.1 µM
# [27] = second compound 3.16 µM, first compound 0.316 µM
# [28] = second compound 3.16 µM, first compound 1 µM
# [29] = second compound 3.16 µM, first compound 3.16 µM
# [30] = second compound 3.16 µM, first compound 10 µM
# [31] = second compound 10 µM, first compound 0.0316 µM
# [32] = second compound 10 µM, first compound 0.1 µM
# [33] = second compound 10 µM, first compound 0.316 µM
# [34] = second compound 10 µM, first compound 1 µM
# [35] = second compound 10 µM, first compound 3.16 µM
# [36] = second compound 10 µM, first compound 10 µM
# 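Further: spheroids exposed to compounds for seven days before readout.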
structure (smiles),measurement,setting,value
CC(C)(O)C1CCC(Nc2ccc3ncc(-c4cccc(C(F)(F)F)c4)n3n2)CC1 (stereo unspecified) + CN(C)c1ccc(Nc2c3ccc(NC(=O)CCN4CCCC4)cc3nc3cc(NC(=O)CCN4CCCC4)ccc23)cc1,IC50,second compound 0.0316 µM,1.59 µM
same,IC50,second compound 0.1 µM,1.67 µM
same,IC50,second compound 0.316 µM,1.61 µM
same,IC50,second compound 1 µM,1.59 µM
same,IC50,second compound 3.16 µM,1.53 µM
same,IC50,second compound 10 µM,1.47 µM
same,"viability, T/C",[1],102%
same,"viability, T/C",[2],91.7%
same,"viability, T/C",[3],87.4%
same,"viability, T/C",[4],73.4%
same,"viability, T/C",[5],15.2%
same,"viability, T/C",[6],14.3%
same,"viability, T/C",[7],106%
same,"viability, T/C",[8],97%
same,"viability, T/C",[9],108%
same,"viability, T/C",[10],78.8%
same,"viability, T/C",[11],14.7%
same,"viability, T/C",[12],12.1%
same,"viability, T/C",[13],105%
same,"viability, T/C",[14],96.9%
same,"viability, T/C",[15],94.9%
same,"viability, T/C",[16],74%
same,"viability, T/C",[17],15.2%
same,"viability, T/C",[18],16.6%
same,"viability, T/C",[19],95%
same,"viability, T/C",[20],100%
same,"viability, T/C",[21],90.9%
same,"viability, T/C",[22],74.9%
same,"viability, T/C",[23],13%
same,"viability, T/C",[24],13.6%
same,"viability, T/C",[25],91.9%
same,"viability, T/C",[26],92.2%
same,"viability, T/C",[27],89.5%
same,"viability, T/C",[28],71.3%
same,"viability, T/C",[29],13.2%
same,"viability, T/C",[30],11.4%
same,"viability, T/C",[31],84.7%
same,"viability, T/C",[32],81.3%
same,"viability, T/C",[33],75.9%
same,"viability, T/C",[34],69.4%
same,"viability, T/C",[35],11.8%
same,"viability, T/C",[36],10%
COc1ncnc(C2CC2)c1-c1ncc2cnn(Cc3ccc(-c4nc(C(F)(F)F)cn4C(C)C)cc3)c2n1 + CN(C)c1ccc(Nc2c3ccc(NC(=O)CCN4CCCC4)cc3nc3cc(NC(=O)CCN4CCCC4)ccc23)cc1,IC50,second compound 0.0316 µM,> 10 µM
same,IC50,second compound 0.1 µM,> 10 µM
same,IC50,second compound 0.316 µM,> 10 µM
same,IC50,second compound 1 µM,> 10 µM
same,IC50,second compound 3.16 µM,> 10 µM
same,IC50,second compound 10 µM,> 10 µM
same,"viability, T/C",[1],101%
same,"viability, T/C",[2],92.4%
same,"viability, T/C",[3],91.7%
same,"viability, T/C",[4],96.4%
same,"viability, T/C",[5],105%
same,"viability, T/C",[6],102%
same,"viability, T/C",[7],105%
same,"viability, T/C",[8],95.4%
same,"viability, T/C",[9],91.1%
same,"viability, T/C",[10],93.2%
same,"viability, T/C",[11],101%
same,"viability, T/C",[12],101%
same,"viability, T/C",[13],97.7%
same,"viability, T/C",[14],97.5%
same,"viability, T/C",[15],88.9%
same,"viability, T/C",[16],94.3%
same,"viability, T/C",[17],96.1%
same,"viability, T/C",[18],83.1%
same,"viability, T/C",[19],96.7%
same,"viability, T/C",[20],93.7%
same,"viability, T/C",[21],91.5%
same,"viability, T/C",[22],91.3%
same,"viability, T/C",[23],101%
same,"viability, T/C",[24],93.3%
same,"viability, T/C",[25],93.9%
same,"viability, T/C",[26],91.7%
same,"viability, T/C",[27],84.9%
same,"viability, T/C",[28],96.6%
same,"viability, T/C",[29],99%
same,"viability, T/C",[30],92.9%
same,"viability, T/C",[31],83.3%
same,"viability, T/C",[32],80.6%
same,"viability, T/C",[33],85.5%
same,"viability, T/C",[34],80.8%
same,"viability, T/C",[35],79.7%
same,"viability, T/C",[36],75%
Nc1ccn(C2OC(CO)C(O)C2(F)F)c(=O)n1 (stereo unspecified) + CN(C)c1ccc(Nc2c3ccc(NC(=O)CCN4CCCC4)cc3nc3cc(NC(=O)CCN4CCCC4)ccc23)cc1,IC50,second compound 0.0316 µM,> 10 µM
same,IC50,second compound 0.1 µM,> 10 µM
same,IC50,second compound 0.316 µM,> 10 µM
same,IC50,second compound 1 µM,> 10 µM
same,IC50,second compound 3.16 µM,> 10 µM
same,IC50,second compound 10 µM,> 10 µM
same,"viability, T/C",[1],88.9%
same,"viability, T/C",[2],81%
same,"viability, T/C",[3],74.9%
same,"viability, T/C",[4],74.2%
same,"viability, T/C",[5],72.9%
same,"viability, T/C",[6],62.7%
same,"viability, T/C",[7],97.5%
same,"viability, T/C",[8],82.7%
same,"viability, T/C",[9],78.3%
same,"viability, T/C",[10],74.1%
same,"viability, T/C",[11],69.7%
same,"viability, T/C",[12],55.3%
same,"viability, T/C",[13],94.4%
same,"viability, T/C",[14],83.2%
same,"viability, T/C",[15],72.7%
same,"viability, T/C",[16],69.3%
same,"viability, T/C",[17],68.9%
same,"viability, T/C",[18],59.8%
same,"viability, T/C",[19],87.3%
same,"viability, T/C",[20],78.8%
same,"viability, T/C",[21],75%
same,"viability, T/C",[22],70.4%
same,"viability, T/C",[23],70.5%
same,"viability, T/C",[24],57.5%
same,"viability, T/C",[25],76.8%
same,"viability, T/C",[26],78%
same,"viability, T/C",[27],71.4%
same,"viability, T/C",[28],65.2%
same,"viability, T/C",[29],65.5%
same,"viability, T/C",[30],54.4%
same,"viability, T/C",[31],83.1%
same,"viability, T/C",[32],66.2%
same,"viability, T/C",[33],66.3%
same,"viability, T/C",[34],63.6%
same,"viability, T/C",[35],57.6%
same,"viability, T/C",[36],48.2%
